Test results published in the supplement of paper PMC10307832.

What was measured:
Test in all cases: relative viability (nuclei count vs DMSO), 5 days (fraction); higher = more cells survive
[1] = compound: C=CCc1cccc(/C=N/NC(=O)CN2CCN(Cc3ccccc3)CC2)c1O [PAC-1] + CC1(C)CCC(c2ccc(Cl)cc2)=C(CN2CCN(c3ccc(C(=O)NS(=O)(=O)c4ccc(N[C@H](CCN5CCOCC5)CSc5ccccc5)c(S(=O)(=O)C(F)(F)F)c4)cc3)CC2)C1 [Navitoclax] (partner 0.5 µM)
Procedure, shortened: (§1)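 Relative viability was taken as the ratio of nuclei in treated wells to nuclei in vehicle wells. Lung cancer cell lines in 1536-well plates received compounds by pin tool one day after seeding, either one drug alone or a fixed anchor-drug dose plus five library-drug doses (not always all listed) in √10 steps. Nuclei were counted on 4× images after 5 days of treatment, and values are medians of duplicate plates.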

[2] = compound: C=CCc1cccc(/C=N/NC(=O)CN2CCN(Cc3ccccc3)CC2)c1O [PAC-1] + Cc1cc(Nc2cc(N3CCN(C)CC3)nc(Sc3ccc(NC(=O)C4CC4)cc3)n2)n[nH]1 [Tozasertib] (partner 0.1 µM)
Procedure, shortened: as §1

[3] = compound: C=CC(=O)Nc1cc(-n2c(=O)ccc3cnc4ccc(-c5ccc(NS(C)(=O)=O)cc5)cc4c32)ccc1C [BMX-IN-1] + COc1cccc2cc(-c3nc([C@H]4CC[C@H](C(=O)O)CC4)n4ncnc(N)c34)[nH]c12 [OSI-027] (partner 0.5 µM)
Procedure, shortened: as §1

[4] = compound: C=CC(=O)Nc1cc(-n2c(=O)ccc3cnc4ccc(-c5ccc(NS(C)(=O)=O)cc5)cc4c32)ccc1C [BMX-IN-1] + Nc1ncn([C@H]2C[C@H](O)[C@@H](CO)O2)c(=O)n1 [Decitabine] (partner 2 µM)
Procedure, shortened: as §1

**Q.** Which relative viability ([1]; first compound 0.02 µM) does the source give for SK-MES-1 here?
**A.** 1.09

**Q.** And the relative viability ([1]; first compound 0.06325 µM)?
**A.** 1.3

**Q.** And the relative viability ([1]; first compound 0.2 µM)?
**A.** 1.19

**Q.** And the relative viability ([1]; first compound 2 µM)?
**A.** 1.21

**Q.** What about the relative viability ([2]; first compound 0.02 µM) of the same cell line?
**A.** 0.9

**Q.** What about the relative viability ([2]; first compound 0.06325 µM) of the same cell line?
**A.** 0.916

**Q.** And the relative viability ([2]; first compound 0.2 µM)?
**A.** 0.892

**Q.** What about the relative viability ([2]; first compound 2 µM) of the same cell line?
**A.** 0.916

**Q.** What about the relative viability ([3]; first compound 0.02 µM) of the same cell line?
**A.** 0.783

**Q.** What about the relative viability ([3]; first compound 0.2 µM) of the same cell line?
**A.** 0.645

**Q.** What about the relative viability ([3]; first compound 0.6325 µM) of the same cell line?
**A.** 0.757

**Q.** And the relative viability ([3]; first compound 2 µM)?
**A.** 0.239

**Q.** And the relative viability ([4]; first compound 0.02 µM)?
**A.** 0.398

**Q.** And the relative viability ([4]; first compound 0.2 µM)?
**A.** 0.432

**Q.** What about the relative viability ([4]; first compound 0.6325 µM) of the same cell line?
**A.** 0.425

**Q.** And the relative viability ([4]; first compound 2 µM)?
**A.** 0.637
